The source of these data is patent US20230251277A1, “METHOD FOR DETERMINING THE LEVEL OF VITAMIN D AND METABOLITES THEREOF” (Roche Diagnostics Operations, Inc., priority 2020, published 2023).

Data set [1] is described as follows: Dynamic viscosity of the releasing reagent solution. It counts as physicochemical.
Data set [2] is described as follows: physchem. Particulars: aqueous with cosolvent or surfactant or cyclodextrin.
Data set [3] addresses T1, Vitamin D binding protein (Homo sapiens, UniProt P02774).
T1 sequence (P02774 17-474): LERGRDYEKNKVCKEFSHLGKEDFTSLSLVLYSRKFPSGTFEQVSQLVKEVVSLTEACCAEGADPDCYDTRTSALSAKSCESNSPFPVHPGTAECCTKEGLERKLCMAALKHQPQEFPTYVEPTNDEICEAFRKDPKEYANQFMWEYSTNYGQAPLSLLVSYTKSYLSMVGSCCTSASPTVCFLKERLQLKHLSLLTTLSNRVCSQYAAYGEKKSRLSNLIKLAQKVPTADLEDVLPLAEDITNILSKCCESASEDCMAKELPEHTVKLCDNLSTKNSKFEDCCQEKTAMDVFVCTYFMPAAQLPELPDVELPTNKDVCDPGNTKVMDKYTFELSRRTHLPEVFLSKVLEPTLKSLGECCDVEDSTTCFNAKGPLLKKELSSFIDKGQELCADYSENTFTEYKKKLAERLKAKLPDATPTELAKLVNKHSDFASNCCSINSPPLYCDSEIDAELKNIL
Description: Screening of releasing reagent candidates: recovery of Vitamin D metabolites from spiked native serum pool (immunobead capture, LC-MS/MS). It counts as biochemical. Particulars: 45 µl pretreatment reagent at the concentration of the 1st table. Also noted: native serum pool and homogenized; from tissue; host or cells: native serum pool (spiked with vitamin D metabolites). Here is the method:
0.30 ml di-OH Vitamin D stock solution ([…] 24R,25-di-OH Vitamin D3 and […] 24R,25-di-OH Vitamin D2 in methanol) and 0.55 ml mono-OH Vitamin D stock solution (10.00 µg/ml 25-OH Vitamin D3 and 10.00 µg/ml 25-OH Vitamin D2 in methanol) are added to 99.1 5 ml native serum pool and homogenized. Thus resulting concentrations in the spiked pool are: • 3.9 ng/ml 24R,25-di-OH Vitamin D3 • 6.0 ng/ml 24R,25-di-OH Vitamin D2 • 55.0 ng/ml 25-OH Vitamin D2 • 84.9 ng/ml 25-OH Vitamin D3 Endogenous amounts in the original native serum pool are taken into account.
Molar concentrations of the evaluated chemicals are:
10 µl Vitamin D free serum (representing ISTD dummy) are pipetted to 145 µl sample in a plastic vessel. After incubation with periodic shaking for 231 s at 37° C., 45 µl pretreatment reagent are added. Again, an incubation with periodic shaking for 640 s at 37° C. takes place. Therefore Vitamin D should be or is gently released from Vitamin D binding protein. In the next step 50 µl immunobead suspension are pipetted to the mixture. Again, an incubation with periodic shaking for 393 s at 37℃ takes place. After twofold bead wash using 0.01 M PBS and magnetic separation, 60 µl of the elution reagent water/methanol 2/8 (v/v) are added and a 40 s incubation period takes place. It is possible to transfer 40 µl supernatant in a HPLC glass vial while 20 µl have to remain in the vessel to avoid the carry-over of beads into the supernatant. In the final step 40 µl internal standard working solution are added to the supernatant and homogenized by means of sip and spit pipetting technique.
HPLC-MS/MS analysis is performed using a 1290 infinity Multisampler and a 1290 Inifinity LC System (Agilent Technologies, Santa Clara/USA) coupled to a Triple Quad 6500+ MS (Sciex, Darmstadt).
40 µl of each sample are injected on the analytical C18 column (50×2.1 mm, 2.6 µm, Hitachi, Tokio/Japan) in order to separate the analytes. This is realized with a flow rate of 1.0 ml/min and at a column temperature of 50° C. Separation of the analytes is achieved with the following gradient of 50 mM formic acid (A) and methanol (B): • 0.00 min: 80% […] • 0.70 min: 90% B • 0.75 min: 98% B • 1.70 min: 98% B • 1.80 min: 80% B • 2.40 min: 80% B
The coupled MS detector is operating in positive electrospray ionisation (ESI) mode. The Vitamin D analytes are detected using multi reaction monitoring (MRM) technique. Doing this two periods are applied: 0.00-0.60 min for measurement of 24R,25-di-OH Vitamin D2/D3 and 0.60-2.40 min for the detection of 25-OH Vitamin
Calibration is performed by means of LC-MS/MS of Vitamin D standards in solvent (60% MeOH) containing internal standards as concentrated as in the processed samples. For example, calibration levels for 25-OH Vitamin D3 are 2, 5, 10, 25, 50 and 100 ng/ml, while the concentration of 25-OH Vitamin D3 13C5 is set to 30 ng/ml.
Due to the fact that internal standard concentrations are identical both in calibrators and processed samples, it is possible to calculate recoveries for each analyte with the formula: […]
The results are shown in FIGS. 2 to 5 show the recovery of the releasing reagent candidates for 25-OH Vitamin D3 (FIG. 2), 25-OH Vitamin D2 (FIG. 3), 24R25-di-OH Vitamin D3 (FIG. 4) and 24R25-di-OH Vitamin D2 (FIG. 5).
Each error bar in FIGS. 2 and 5 is constructed using the min and the max. of the data.

For data set [4], the target named is T1, Vitamin D binding protein. Description: Pretreatment optimization (design of experiments): 25-OH Vitamin D3 area ratio / analyte recovery in serum, plasma, Vitamin D free serum.

The solubility is how much of the substance goes into solution per volume. The low end stands for a poorly soluble substance, the high end for a readily soluble substance.

Structures are written as SMILES. Values after ≈ are worked out from the molar mass of the structure shown. “Also recorded” adds a separate entry of the source.

Consider `O=C([O-])c1ccccc1O.[Na+]` [PT1, Sodium Salicylate, reference compound], for which the dynamic viscosity in data set [1] (at 6° C. for 5.6 M solution in 0.01 M PBS/methanol 9/1) is recorded as 23 mPas; in data set [1] (at 6° C., (pre)treatment containing 5.6 M (PT1)) it was 23 mPa·s. Besides, in data set [2], the solubility was 5600 mM. In data set [3] (FIGS. 2 to 5), the “recovery of Vitamin D metabolites (25-OH D3, 25-OH D2, 24R,25-di-OH D3, 24R,25-di-OH D2)” value (shortened to “recovery of Vitamin D metabolites”) is on record as “Highest recoveries”.
Consider `N.O=C(O)c1ccccc1O` [PT2, Ammonium Salicylate], for which the solubility in data set [2] came out at 5600 mM. Also, the “recovery of Vitamin D metabolites” value in data set [3] (FIGS. 2 to 5) was “Highest recoveries”.
For the compound `O=C(OCCO)c1ccccc1O` [PT3, Ethylen glycol monosalicylate], in data set [2], the concentration in solution (solubility) came to 50 mM (≈ 9110 µg/mL).
On the same count and under the same terms, the figure for `O=C(O)c1ccc(O)c(C(=O)O)c1` [PT4, 4-Hydroxyisophthalic acid] is 1 mM (≈ 182 µg/mL).
Compound `O=C(O)c1cccc(O)c1` [PT5, 3-Hydroxybenzoic acid] yielded a solubility in data set [2] of 50 mM (≈ 6910 µg/mL). In data set [3] (FIGS. 2 to 5), the “recovery of Vitamin D metabolites” value was “Highest recoveries”.
The compound `Cc1ccc(C(=O)O)c(O)c1` [PT6, 4-Methylsalicylic acid] came in with a solubility in data set [2] of 20 mM (≈ 3040 µg/mL).
`O=C(O)c1ccc(O)cc1O` [PT7, 2,4-Dihydroxybenzoic acid]: in data set [2], the solubility amounted to 50 mM (≈ 7710 µg/mL). Moreover, the “recovery of Vitamin D metabolites” value in data set [3] (FIGS. 2 to 5) is “Highest recoveries”.
Turning to `COC(=O)c1ccc(O)cc1.[Na]` [PT8, Methylparaben Sodium], the “recovery of Vitamin D metabolites” value in data set [3] (FIGS. 2 to 5) is “Lowest recoveries”.
The compound `COc1ccccc1C(=O)O` [PT9, 2-Methoxy-benzoic acid] had a solubility in data set [2] of 30 mM (≈ 4560 µg/mL).
The same measure, in the same setting: the result for `CC(=O)Oc1ccccc1C(=O)O` [PT10, Aspirin, reference compound] reads 10 mM (≈ 1800 µg/mL).
On the same count and under the same terms, the result for `O=C(O)c1cc(/N=N/c2ccc(S(=O)(=O)Nc3ccccn3)cc2)ccc1O` [PT11, Sulfasalazine, reference compound] reads 9 mM (≈ 3590 µg/mL).
On the same count and under the same terms, the figure for `O=C(O)c1ccccc1O` [PT12, Salicylic acid, reference compound] is 30 mM (≈ 4140 µg/mL); for `Cc1ccc(O)c(C(=O)O)c1` [PT13, 2-Hydroxy-5-methylbenzoic acid] it is 10 mM (≈ 1520 µg/mL).
In the case of `COC(=O)c1ccc(O)cc1` [PT14, Methyl-4-hydroxybenzoate], the “recovery of Vitamin D metabolites” value in data set [3] (FIGS. 2 to 5) is recorded as “Lowest recoveries”.
Regarding `Cc1cccc(C(=O)O)c1O` [PT15, 3-Methylsalicylic acid], the solubility in data set [2] was found to be 10 mM (≈ 1520 µg/mL).
The same measure, in the same setting: the result for `COC(=O)c1ccccc1O` [PT16, Methyl Salicylate, reference compound] reads 10 mM (≈ 1520 µg/mL).
On the same count and under the same terms, the result for `O=C(Oc1ccccc1)c1ccccc1O` [PT17, Phenyl Salicylate] reads 0.9 mM (≈ 193 µg/mL).
The same measure, in the same setting: the result for `O=C(O)c1cc(-c2ccc(F)cc2F)ccc1O` [PT18, Diflunisal, reference compound] reads 0.4 mM (≈ 100 µg/mL).
In the case of `CCOC(=O)c1cc(OCC)ccc1O` [PT19, Ethyl-5-ethoxy-2-hydroxybenzoate], the solubility in data set [2] stood at 4 mM (≈ 841 µg/mL).
On to `O=C([O-])c1cccc(O)c1.[Na+]` [PT20, 3-Hydroxybenzoic acid sodium salt], for which the solubility in data set [2] was determined as 2800 mM. Besides, the “recovery of Vitamin D metabolites” value in data set [3] (FIGS. 2 to 5) was “Highest recoveries”.
In data set [1] (at 6° C., 2.3 M dissolved in 35/65 MeOH/0.01 M PBS (v/v)), `Cc1cccc(C(=O)[O-])c1O.[Na+]` [PT21, 3-Methyl Salicylic acid Sodium salt] returned a dynamic viscosity of 8.3 mPa·s. Moreover, the “recovery of Vitamin D metabolites” value in data set [3] (FIGS. 2 to 5, Sodium salt) is given as “Highest recoveries; also recorded: highest analyte recovery”; in data set [3] (FIGS. 2 to 5, listed as 3-methylsalicylic acid sodium salt, Sodium salt) it was “highest analyte recovery”. Moreover, the “Vitamin D release in a patient serum sample” value in data set [4] (450 mM formic acid/0.7 M versus 0 mM formic acid/2.3 M) is “comparable Vitamin D release”. Moreover, the “analyte recovery compared with 5.6 M Salicylic acid sodium salt (PT1)” value in data set [4] (optimized pretreatment: 2.3 M, 35/65 (v/v) methanol/0.01 M PBS, 0% FA, Sodium salt) is “comparable to the recovery with salicylic acid sodium salt”.
Compound `O=C(O)c1ccc(C(F)(F)F)cc1O` [PT22, 2-Hydroxy-4-trifluoromethylbenzoic acid] displayed a solubility in data set [2] of 6 mM (≈ 1240 µg/mL).
